Test results taken from ChEMBL document CHEMBL1201862, “PubChem BioAssay data set” (2004).
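Compound exposure: 48 hours, 5 concentrations, 96-well plates. Abbreviation: GI50, concentration required for 50% inhibition of growth.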 Activity calls are given as the source filed them. Cut-off read from the data, not from the text of the source: active = GI50 up to about 1.1 µM and inactive = higher.

Tests used:
Experiment in all cases: NCI-60 cell line screen, 48 h
NCI-H23 = test system: NCI-H23
BT-549 = test system: BT-549
CAKI-1 = test system: CAKI-1
NCI-H460 = test system: NCI-H460
MOLT-4 = test system: MOLT-4
PC-3 = test system: PC-3
KM12 = test system: KM12
COLO 205 = test system: COLO 205
A549 = test system: A549
UACC-257 = test system: UACC-257
NCI-H226 = test system: NCI-H226
DU-145 = test system: DU-145
SW-620 = test system: SW-620
MDA-MB-231 = test system: MDA-MB-231
HCT-15 = test system: HCT-15
HOP-92 = test system: HOP-92
SK-MEL-2 = test system: SK-MEL-2
HOP-62 = test system: HOP-62
SR = test system: SR
Malme-3M = test system: Malme-3M
K562 = test system: K562
SF-268 = test system: SF-268
CCRF-CEM = test system: CCRF-CEM
SF-295 = test system: SF-295
SN12C = test system: SN12C
HT-29 = test system: HT-29
UACC-62 = test system: UACC-62
UO-31 = test system: UO-31
SK-MEL-5 = test system: SK-MEL-5
MDA-N = test system: MDA-N
TK-10 = test system: TK-10
EKVX = test system: EKVX
OVCAR-8 = test system: OVCAR-8
T47D = test system: T47D
SNB-19 = test system: SNB-19
OVCAR-3 = test system: OVCAR-3
HCC 2998 = test system: HCC 2998
SF-539 = test system: SF-539
HL-60 = test system: HL-60
MDA-MB-435 = test system: MDA-MB-435
MCF7 = test system: MCF7
ACHN = test system: ACHN
Hs-578T = test system: Hs-578T
SK-MEL-28 = test system: SK-MEL-28
SNB-75 = test system: SNB-75
OVCAR-4 = test system: OVCAR-4
A498 = test system: A498
NCI/ADR-RES = test system: NCI/ADR-RES
HCT-116 = test system: HCT-116
U-251 = test system: U-251
M14 = test system: M14
786-0 = test system: 786-0
IGROV-1 = test system: IGROV-1
NCI-H522 = test system: NCI-H522
LOX IMVI = test system: LOX IMVI
RXF 393 = test system: RXF 393
RPMI-8226 = test system: RPMI-8226
OVCAR-5 = test system: OVCAR-5
SK-OV-3 = test system: SK-OV-3

## CC(=O)Oc1ccn2nc(C)c(Br)c2c1Br
NCI-H23
  GI50: 18.3 µM (inactive)
BT-549
  GI50: 26 µM (inactive)
CAKI-1
  GI50: 2.88 µM (inactive)
NCI-H460
  GI50: 21.5 µM (inactive)
MOLT-4
  GI50: 15.3 µM (inactive)
PC-3
  GI50: 18.4 µM (inactive)
KM12
  GI50: 33.7 µM (inactive)
COLO 205
  GI50: 19.4 µM (inactive)
A549
  GI50: 23.1 µM (inactive)
UACC-257
  GI50: 16.7 µM (inactive)
NCI-H226
  GI50: > 43.9 µM (inactive)
DU-145
  GI50: 59.4 µM (inactive)
SW-620
  GI50: 30.5 µM (inactive)
MDA-MB-231
  GI50: 23 µM (inactive)
HCT-15
  GI50: 16.9 µM
HOP-92
  GI50: 19.4 µM (inactive)
SK-MEL-2
  GI50: 27.5 µM (inactive)
HOP-62
  GI50: 44.4 µM (inactive)
SR
  GI50: 40.9 µM (inactive)
Malme-3M
  GI50: 22.4 µM (inactive)
K562
  GI50: 24.5 µM (inactive)
SF-268
  GI50: 25.5 µM (inactive)
CCRF-CEM
  GI50: 21.6 µM (inactive)
SF-295
  GI50: 30.5 µM (inactive)
SN12C
  GI50: 27.7 µM (inactive)
HT-29
  GI50: 20.7 µM (inactive)
UACC-62
  GI50: 17.7 µM (inactive)
UO-31
  GI50: 4.6 µM (inactive)
SK-MEL-5
  GI50: 17.5 µM (inactive)
MDA-N
  GI50: 17.6 µM (inactive)
TK-10
  GI50: 45 µM (inactive)
EKVX
  GI50: 29 µM (inactive)
OVCAR-8
  GI50: 29.4 µM (inactive)
T47D
  GI50: 29.3 µM (inactive)
SNB-19
  GI50: 49.9 µM (inactive)
OVCAR-3
  GI50: 17.6 µM (inactive)
HCC 2998
  GI50: 20.7 µM (inactive)
SF-539
  GI50: 21.2 µM (inactive)
HL-60
  GI50: 29 µM (inactive)
MDA-MB-435
  GI50: 17.9 µM (inactive)
MCF7
  GI50: 17.8 µM (inactive)
ACHN
  GI50: 17.6 µM (inactive)
Hs-578T
  GI50: 29.6 µM (inactive)
SK-MEL-28
  GI50: 21.4 µM (inactive)
SNB-75
  GI50: 22.1 µM (inactive)
OVCAR-4
  GI50: 16.8 µM (inactive)
A498
  GI50: 25.1 µM (inactive)
NCI/ADR-RES
  GI50: 47.6 µM (inactive)
HCT-116
  GI50: 23 µM (inactive)
U-251
  GI50: 35.1 µM (inactive)
M14
  GI50: 18.9 µM (inactive)
786-0
  GI50: 36.5 µM (inactive)
IGROV-1
  GI50: 32.5 µM (inactive)
NCI-H522
  GI50: 17.6 µM (inactive)
LOX IMVI
  GI50: 18.4 µM (inactive)
RXF 393
  GI50: > 10 µM (inactive)

## NCCNCCCNC(=O)c1cc(-c2ccccc2)nc2ccccc12
NCI-H23
  GI50: 30.6 µM (inactive)
BT-549
  GI50: 55.8 µM (inactive)
CAKI-1
  GI50: 52.4 µM (inactive)
NCI-H460
  GI50: 35.2 µM (inactive)
MOLT-4
  GI50: 22.1 µM (inactive)
PC-3
  GI50: 51.3 µM (inactive)
KM12
  GI50: 33.1 µM (inactive)
COLO 205
  GI50: 16.2 µM (inactive)
A549
  GI50: 41.6 µM (inactive)
UACC-257
  GI50: 24.1 µM (inactive)
NCI-H226
  GI50: > 100 µM (inactive)
DU-145
  GI50: > 100 µM (inactive)
SW-620
  GI50: 34 µM (inactive)
MDA-MB-231
  GI50: 31.3 µM (inactive)
HCT-15
  GI50: > 100 µM
HOP-92
  GI50: 13.7 µM (inactive)
SK-MEL-2
  GI50: 21 µM (inactive)
HOP-62
  GI50: 27.2 µM (inactive)
SR
  GI50: 28.3 µM (inactive)
Malme-3M
  GI50: 16.8 µM (inactive)
K562
  GI50: 23.1 µM (inactive)
SF-268
  GI50: 26.1 µM (inactive)
CCRF-CEM
  GI50: 21 µM (inactive)
RPMI-8226
  GI50: 54 µM (inactive)
SF-295
  GI50: 28.6 µM (inactive)
SN12C
  GI50: 40.8 µM (inactive)
HT-29
  GI50: 36.2 µM (inactive)
UACC-62
  GI50: 19.9 µM (inactive)
UO-31
  GI50: 46 µM (inactive)
SK-MEL-5
  GI50: 15.6 µM (inactive)
MDA-N
  GI50: 25.5 µM (inactive)
TK-10
  GI50: 62.7 µM (inactive)
EKVX
  GI50: > 100 µM (inactive)
OVCAR-8
  GI50: 85.5 µM (inactive)
T47D
  GI50: 38.5 µM (inactive)
SNB-19
  GI50: 50 µM (inactive)
OVCAR-5
  GI50: 46.3 µM (inactive)
OVCAR-3
  GI50: > 100 µM (inactive)
HCC 2998
  GI50: 19.6 µM (inactive)
SF-539
  GI50: 19.6 µM (inactive)
HL-60
  GI50: 30.6 µM (inactive)
MDA-MB-435
  GI50: 20.8 µM (inactive)
MCF7
  GI50: 45.4 µM (inactive)
ACHN
  GI50: 38.1 µM (inactive)
Hs-578T
  GI50: 48.3 µM (inactive)
SK-MEL-28
  GI50: 16.7 µM (inactive)
SNB-75
  GI50: > 10 µM (inactive)
A498
  GI50: 41.7 µM (inactive)
NCI/ADR-RES
  GI50: > 100 µM (inactive)
HCT-116
  GI50: 35.6 µM (inactive)
U-251
  GI50: 17.6 µM (inactive)
SK-OV-3
  GI50: 65 µM (inactive)
M14
  GI50: 15.1 µM (inactive)
786-0
  GI50: 22.3 µM (inactive)
IGROV-1
  GI50: > 100 µM (inactive)
NCI-H522
  GI50: 17.6 µM (inactive)
LOX IMVI
  GI50: 28.3 µM (inactive)
RXF 393
  GI50: 38.8 µM (inactive)

## COc1c2c(c(OC)c3c1c(=O)c1ccccc1n3C)OCO2
NCI-H23
  GI50: 10.6 µM (inactive)
BT-549
  GI50: 15 µM (inactive)
CAKI-1
  GI50: 37.4 µM (inactive)
NCI-H460
  GI50: 8.49 µM (inactive)
MOLT-4
  GI50: 7.85 µM (inactive)
PC-3
  GI50: 19.7 µM (inactive)
KM12
  GI50: 3.25 µM (inactive)
COLO 205
  GI50: 7.66 µM (inactive)
A549
  GI50: 44.5 µM (inactive)
UACC-257
  GI50: > 100 µM (inactive)
NCI-H226
  GI50: > 50.4 µM (inactive)
DU-145
  GI50: 36.5 µM (inactive)
SW-620
  GI50: 4.13 µM (inactive)
MDA-MB-231
  GI50: 19.3 µM (inactive)
HCT-15
  GI50: 26.1 µM
HOP-92
  GI50: > 47.8 µM (inactive)
SK-MEL-2
  GI50: > 19.9 µM (inactive)
HOP-62
  GI50: 25.2 µM (inactive)
SR
  GI50: 3.69 µM (inactive)
K562
  GI50: 0.703 µM (active)
SF-268
  GI50: 18.5 µM (inactive)
CCRF-CEM
  GI50: 4.35 µM (inactive)
RPMI-8226
  GI50: 11.4 µM (inactive)
SF-295
  GI50: 14.1 µM (inactive)
SN12C
  GI50: 33.5 µM (inactive)
HT-29
  GI50: 17.5 µM (inactive)
UACC-62
  GI50: 9.06 µM (inactive)
UO-31
  GI50: 39.4 µM (inactive)
SK-MEL-5
  GI50: 3.14 µM (inactive)
MDA-N
  GI50: 2.08 µM (inactive)
TK-10
  GI50: > 100 µM (inactive)
EKVX
  GI50: 35.4 µM (inactive)
OVCAR-8
  GI50: 27.1 µM (inactive)
T47D
  GI50: 6.7 µM (inactive)
SNB-19
  GI50: 26.5 µM (inactive)
OVCAR-5
  GI50: > 72.3 µM (inactive)
OVCAR-3
  GI50: 5.51 µM (inactive)
HCC 2998
  GI50: 5.2 µM (inactive)
SF-539
  GI50: 5.31 µM (inactive)
HL-60
  GI50: 3.18 µM (inactive)
MDA-MB-435
  GI50: 2.28 µM (inactive)
MCF7
  GI50: 4.2 µM (inactive)
ACHN
  GI50: 49.2 µM (inactive)
Hs-578T
  GI50: 4.79 µM (inactive)
SK-MEL-28
  GI50: 30.5 µM (inactive)
SNB-75
  GI50: 6.68 µM (inactive)
OVCAR-4
  GI50: 24.6 µM (inactive)
A498
  GI50: 53.3 µM (inactive)
NCI/ADR-RES
  GI50: 44.9 µM (inactive)
HCT-116
  GI50: 6.15 µM (inactive)
U-251
  GI50: 19.1 µM (inactive)
SK-OV-3
  GI50: 25.5 µM (inactive)
M14
  GI50: 9.51 µM (inactive)
786-0
  GI50: 29.2 µM (inactive)
IGROV-1
  GI50: 7.87 µM (inactive)
NCI-H522
  GI50: 2.23 µM (inactive)
LOX IMVI
  GI50: 5.48 µM (inactive)
RXF 393
  GI50: 6.07 µM (inactive)
